# Source: a melting point compilation (Tetko et al.; mined from patent text by program, amines drawn as free bases though some values may be those of a salt)
row,melting point [°C],SMILES
1,122 to 125,COc1ccc(S(=O)(=O)NC(C)(C)C(=O)NO)cc1
2,216 to 218,COc1cc2c(Nc3ccc(Cl)cc3F)ncnc2cc1OCCCn1ccccc1=O
3,121 to 122,Clc1ccc(CN2CCOCC2)c(N=C2CCCCN2)c1
4,> 300,COC(=O)c1c(OC)c(OC)cc2[nH]c(=O)c(=O)[nH]c12
5,172 to 174,Cc1cc(C)nc(NC(C(=O)O)C(c2ccccc2)c2ccccc2)n1 (stereo not given)
6,228 to 231,O=C1CCc2cc(Cl)c(S(=O)(=O)NCc3ccccc3)cc21
7,108 to 110,COC1CCc2c(C)c(O)c(C)c(C)c2O1 (stereo not given)
8,41 to 44,FC(F)(F)c1cccc2snnc12
9,136 to 137,CC1(C)C(=O)Oc2ccc3ccc(Cn4cncn4)cc3c21
10,227 to 229,O=[N+]([O-])c1cn2c(n1)O[C@@H](COc1ccc(N3CCC(Nc4ccc(OCc5ccc(OC(F)(F)F)cc5)cc4)CC3)cc1)CC2
11,228,Clc1nc2cc(Br)c(Br)cc2[nH]1
12,43 to 45,CCOC(=O)C=Cc1cnc(C(C)(C)C)nc1
13,253,CCC(C)(C)c1ccc(Oc2ccncc2NC(=O)c2ccccc2)c(C(C)(C)CC)c1
14,178 to 180,Cc1c(SCCN2CCOCC2)ccnc1CSc1nc2ccccc2n1CC(N)=O
15,131,C[C@@H](CO)Oc1cc(Oc2ccc(C(=O)N3CCC3)cc2)cc(C(=O)Nc2ccn(C)n2)c1
16,63.5 to 64.5,COc1ccc2cc(C(C)C)ccc2c1
17,276 to 278,c1ccc(-c2cc3cnccc3[nH]2)cc1
18,198 to 205,CCOC(=O)c1cn(-c2cc(N)c(F)cc2F)c2cc(F)c(F)cc2c1=O
19,127,CC(C)(Cc1ccc(Cl)cc1)C(=O)Cn1cncn1

row,melting point [°C],SMILES
1,130,OC(CN1CCNC1=S)c1ccc(F)cc1 (stereo not given)
2,128 to 129,COCCOc1ccc(CCCOc2cc(CCC(=O)O)n(-c3ccccc3)n2)c(Oc2ncc(C(F)(F)F)cc2Cl)c1
3,63 to 69,COc1cc(COc2cccc(O)c2C)cc(OC)c1
4,94 to 95,C#CCOC(=O)C=C(C)C=CC=C(C)C=Cc1c(C)cc(OC)c(C)c1C
5,137 to 139,CC(C)Oc1cn(-c2cccc(C(F)(F)F)c2)nc(-c2ccnn2-c2ccccc2)c1=O
6,117 to 121,CS(=O)c1ccc(COC(=O)N2CCN(CC3(C)Cn4cc([N+](=O)[O-])nc4O3)CC2)cc1 (stereo not given)
7,103 to 105,COc1cc2c(cc1C)CCN(C)C2C1(c2ccsc2)CC1 (stereo not given)
8,188,O=C(O)c1snc(-c2ccc(Cl)c(Cl)c2)c1C(=O)O
9,129 to 130,COc1ccc2c(C(=O)C=[N+]=[N-])nn(Cc3ccc(Cl)c(Cl)c3)c(=O)c2c1
10,178,Cc1cccc(N=C2NCCN2C(=O)Nc2ccc(F)cc2)c1
11,191 to 192,O=C(Nc1c(C(O)(C(F)(F)F)C(F)(F)F)ccc2ccccc12)c1ccc(C(F)(F)F)cc1
12,179 to 180,N#Cc1ccc(-c2ccc(OS(N)(=O)=O)cc2)cc1Cn1cncn1
13,305 to 308,O=C1NC(=O)c2c1cc1ccc3c(c1c2C1CCCCC1)OCO3
14,207,COc1ccccc1C1=C(C#N)C(c2ccccc2[N+](=O)[O-])c2c[nH]nc2N1 (stereo not given)
15,204 to 210,O=C(O)c1ccc2c(c1)Sc1ccc(F)cc1C(O)C2 (stereo not given)
16,94,Clc1ccc(C2(c3ccc4nccc(CCc5ccc(Cl)s5)c4c3)OCCO2)cc1
17,214 to 216,COc1cc(C(=O)NC2CC2)c(Cl)cc1O
18,90 to 92,CN1CC(c2cccc(C(F)(F)F)c2)C(=O)C(c2ccccc2Cl)C1 (stereo not given)

row,SMILES,melting point [°C]
1,O=c1[nH]c2cc(F)ccc2c(=O)n1CCCN1CC=C(c2ccc(Cl)cc2)CC1,197 to 198
2,C[C@]12CC(I)C(=O)C=C1CC[C@@H]1[C@@H]2CC[C@]2(C)C(=O)CC[C@@H]12 (stereo not given in full),92
3,COc1ccc(C2CCNCC2)cc1OC,98 to 100
